Patent US9101785B2, “Use of 2,3-dihydroxypropyl dodecanoate for treating seborrhoea” (PIERRE FABRE DERMO-COSMETIQUE, priority 2009, dated 2015)

System: 5-α reductase enzyme
Experiment: Inhibition of 5-α reductase activity: conversion of [4-14C]testosterone to DHT by normal human dermal fibroblasts (NHDF)
Assay type: cell-based

SMILES	testosterone metabolisation to DHT / 5-α reductase activity (in words) (positive control tested at 10 μM)	5-α reductase enzyme activity (reduced to) (75 μM test compound, 24 h pre-incubation then 24 h with radiolabelled testosterone, DHT quantified by TLC/phosphorImager)	inhibition of 5-α reductase activity (in words) (dose-effect observed, FIG. 1)
CC(C)(C)NC(=O)[C@H]1CC[C@H]2[C@@H]3CC[C@H]4NC(=O)C=C[C@]4(C)[C@H]3CC[C@]12C [finasteride, reference compound]	lowers testosterone metabolisation to DHT significantly		
CCCCCCCCCCCC(=O)OCC(O)CO (stereo not drawn) [2,3-dihydroxypropyl dodecanoate]		66%	inhibition of 5-α reductase activity is also observed
